Here are results for three molecules from PubChem BioAssay AID1259407 (Chemical Carcinogenesis Research Information System (CCRIS), 2018).

Active and inactive are the calls of the source. No rule for the calls is given here.

The data set deals with CCRIS mutagenicity, Ames/micronucleus/aberration tests. The experiment in a line: CCRIS mutagenicity studies.
Where [1] appears, read: Test System: AMES SALMONELLA TYPHIMURIUM, Strain/Indicator: TA98, Metabolic Activation: NONE, Method: PREINCUBATION
Setting [2] is: Test System: AMES SALMONELLA TYPHIMURIUM, Strain/Indicator: TA98, Metabolic Activation: NONE, Method: STANDARD PLATE.
Setting [3] is: Test System: AMES SALMONELLA TYPHIMURIUM, Strain/Indicator: TA100, Metabolic Activation: NONE, Method: PREINCUBATION
Setting [4] is: Test System: AMES SALMONELLA TYPHIMURIUM, Strain/Indicator: TA100, Metabolic Activation: NONE, Method: STANDARD PLATE.

With `O=c1[nH]c(=O)n([C@H]2C[C@H](O)[C@@H](CO)O2)cc1/C=C/Br`, the mutagenic call is “inactive; negative” (Test System: AMES SALMONELLA TYPHIMURIUM, Strain/Indicator: TA97, Metabolic Activation: NONE, Method: PREINCUBATION); “inactive; negative” (Test System: AMES SALMONELLA TYPHIMURIUM, Strain/Indicator: TA97, Metabolic Activation: RAT, LIVER, S-9, AROCLOR 1254, Method: PREINCUBATION); “inactive; negative” under setting [1]; “inactive; negative” under setting [2]; “inactive; negative” (Test System: AMES SALMONELLA TYPHIMURIUM, Strain/Indicator: TA98, Metabolic Activation: RAT, LIVER, S-9, AROCLOR 1254, Method: PREINCUBATION); “inactive; negative” (Test System: AMES SALMONELLA TYPHIMURIUM, Strain/Indicator: TA98, Metabolic Activation: RAT, LIVER, S-9, AROCLOR 1254, Method: STANDARD PLATE). The mutagenic call was “inactive; negative” under setting [3]; “inactive; negative” under setting [4]; “inactive; negative” (Test System: AMES SALMONELLA TYPHIMURIUM, Strain/Indicator: TA100, Metabolic Activation: RAT, LIVER, S-9, AROCLOR 1254, Method: PREINCUBATION); “inactive; negative” (Test System: AMES SALMONELLA TYPHIMURIUM, Strain/Indicator: TA100, Metabolic Activation: RAT, LIVER, S-9, AROCLOR 1254, Method: STANDARD PLATE); “inactive; negative” (Test System: AMES SALMONELLA TYPHIMURIUM, Strain/Indicator: TA102, Metabolic Activation: NONE, Method: PREINCUBATION); “inactive; negative” (Test System: AMES SALMONELLA TYPHIMURIUM, Strain/Indicator: TA102, Metabolic Activation: RAT, LIVER, S-9, AROCLOR 1254, Method: PREINCUBATION). The mutagenic call runs as follows: (Test System: AMES SALMONELLA TYPHIMURIUM, Strain/Indicator: TA104, Metabolic Activation: NONE, Method: PREINCUBATION) “inactive; negative”; (Test System: AMES SALMONELLA TYPHIMURIUM, Strain/Indicator: TA104, Metabolic Activation: RAT, LIVER, S-9, AROCLOR 1254, Method: PREINCUBATION) “inactive; negative”; (Test System: AMES SALMONELLA TYPHIMURIUM, Strain/Indicator: TA1535, Metabolic Activation: NONE, Method: PREINCUBATION) “inactive; negative”; (Test System: AMES SALMONELLA TYPHIMURIUM, Strain/Indicator: TA1535, Metabolic Activation: NONE, Method: STANDARD PLATE) “inactive; negative”; (Test System: AMES SALMONELLA TYPHIMURIUM, Strain/Indicator: TA1535, Metabolic Activation: RAT, LIVER, S-9, AROCLOR 1254, Method: PREINCUBATION) “inactive; negative”; (Test System: AMES SALMONELLA TYPHIMURIUM, Strain/Indicator: TA1535, Metabolic Activation: RAT, LIVER, S-9, AROCLOR 1254, Method: STANDARD PLATE) “inactive; negative”. For the same molecule, the mutagenic call (Test System: AMES SALMONELLA TYPHIMURIUM, Strain/Indicator: TA1537, Metabolic Activation: NONE, Method: PREINCUBATION) is “inactive; negative”; the mutagenic call (Test System: AMES SALMONELLA TYPHIMURIUM, Strain/Indicator: TA1537, Metabolic Activation: NONE, Method: STANDARD PLATE) is “inactive; negative”; the mutagenic call (Test System: AMES SALMONELLA TYPHIMURIUM, Strain/Indicator: TA1537, Metabolic Activation: RAT, LIVER, S-9, AROCLOR 1254, Method: PREINCUBATION) was “inactive; negative”; the mutagenic call (Test System: AMES SALMONELLA TYPHIMURIUM, Strain/Indicator: TA1537, Metabolic Activation: RAT, LIVER, S-9, AROCLOR 1254, Method: STANDARD PLATE) was “inactive; negative”; the mutagenic call (Test System: AMES SALMONELLA TYPHIMURIUM, Strain/Indicator: TA1538, Metabolic Activation: NONE, Method: PREINCUBATION) was “inactive; negative”; the mutagenic call (Test System: AMES SALMONELLA TYPHIMURIUM, Strain/Indicator: TA1538, Metabolic Activation: NONE, Method: STANDARD PLATE) was “inactive; negative”. Moreover, the mutagenic call runs as follows: (Test System: AMES SALMONELLA TYPHIMURIUM, Strain/Indicator: TA1538, Metabolic Activation: RAT, LIVER, S-9, AROCLOR 1254, Method: PREINCUBATION) “inactive; negative”; (Test System: AMES SALMONELLA TYPHIMURIUM, Strain/Indicator: TA1538, Metabolic Activation: RAT, LIVER, S-9, AROCLOR 1254, Method: STANDARD PLATE) “inactive; negative”; (Test System: CHINESE HAMSTER OVARY, Strain/Indicator: CHO-K1-BH4 (HGPRT), Metabolic Activation: NONE) “inactive; negative”; (Test System: CHINESE HAMSTER V-79, Strain/Indicator: V-79/8-AZAGUANINE, Metabolic Activation: NONE) “inactive; negative”; (Test System: MOUSE LYMPHOMA, Strain/Indicator: L5178Y (TK+/TK-), Metabolic Activation: NONE, Method: SUSPENSION/PLATE) “active; positive”; (Test System: MOUSE LYMPHOMA, Strain/Indicator: L5178Y (TK+/TK-), Metabolic Activation: RAT, LIVER, S-9, AROCLOR 1254, Method: SUSPENSION/PLATE) “inactive; negative”. In addition, the mutagenic call reads like this: (Test System: UDS RAT PRIMARY HEPATOCYTES, Strain/Indicator: THY INCORP (NON-S-PHASE), Metabolic Activation: NONE) “inactive; negative”; (Test System: UDS RODENT HEPATOCYTES, Strain/Indicator: THY INCORP, Metabolic Activation: NONE) “inactive; negative”.
Regarding `OCCCCCl`, the mutagenic call under setting [1] was “inactive; negative”; the mutagenic call under setting [3] was “active; positive”; the mutagenic call (Test System: AMES SALMONELLA TYPHIMURIUM, Strain/Indicator: TA100, Metabolic Activation: RAT, LIVER, S-9, KANECHLOR 500, Method: PREINCUBATION) was “active; positive”.
With `O=[N+]([O-])c1cccc2c1c([N+](=O)[O-])cc1ccccc12`, the mutagenic call reads like this: (Test System: AMES SALMONELLA TYPHIMURIUM, Strain/Indicator: TA98(1,8-DNP6), Metabolic Activation: NONE, Method: STANDARD PLATE) “active; positive”; (Test System: AMES SALMONELLA TYPHIMURIUM, Strain/Indicator: TA98(NR), Metabolic Activation: NONE, Method: STANDARD PLATE) “active; positive”; under setting [2], “active; positive”; under setting [4], “active; positive”; (Test System: AMES SALMONELLA TYPHIMURIUM, Strain/Indicator: YG1021, Metabolic Activation: NONE, Method: STANDARD PLATE) “active; positive”; (Test System: AMES SALMONELLA TYPHIMURIUM, Strain/Indicator: YG1024, Metabolic Activation: NONE, Method: STANDARD PLATE) “active; positive”. In addition, the mutagenic call is “active; positive” (Test System: AMES SALMONELLA TYPHIMURIUM, Strain/Indicator: YG1026, Metabolic Activation: NONE, Method: STANDARD PLATE) and “active; positive” (Test System: AMES SALMONELLA TYPHIMURIUM, Strain/Indicator: YG1029, Metabolic Activation: NONE, Method: STANDARD PLATE).
